Experimental data as given in ChEMBL document CHEMBL5046265, “Synthesis of Hemiprotonic Phenanthroline-Phenanthroline+ Compounds with both Antitumor and Antimicrobial Activity” (J Med Chem, 2022).
Calls of active or inactive are those of the source.

Key:
Format in all cases: functional, organism-based
Conditions in all cases: time 9.0 day
Mus musculus [1] = test: Anti-Cryptococcal activity against Cryptococcus neoformans infected pneumonia and encephalitis C57BL/6J mouse model assessed as improvement in clinical symptoms at 8 mg/kg, iv administered once a day for 9 days
Mus musculus [2] = test: Anti-Cryptococcal activity against Cryptococcus neoformans infected pneumonia and encephalitis C57BL/6J mouse model assessed as increase in body weight at 8 mg/kg, iv administered once a day for 9 days
Mus musculus [3] = test: Anti-Cryptococcal activity against Cryptococcus neoformans infected pneumonia and encephalitis C57BL/6J mouse model assessed as reduction in brain edema at 8 mg/kg, iv administered once a day for 9 days and measured at 24 hrs at last post-dosage
Mus musculus [4] = test: Anti-Cryptococcal activity against Cryptococcus neoformans infected pneumonia and encephalitis C57BL/6J mouse model assessed as reduction in pneumonia symptoms at 8 mg/kg, iv administered once a day for 9 days and measured at 24 hrs at last post-dosage

Measured: Activity

OC(Cn1cncn1)(Cn1cncn1)c1ccc(F)cc1F
active: all assays above
